In PMC4718143, “A novel protocol for the one-pot borylation/Suzuki reaction provides easy access to hinge-binding groups for kinase inhibitors” (Organic & Biomolecular Chemistry, 2015):
Where two headings read alike, the source gives them in different places.

Assays:
Assay type in all cases: biochemical
RSK1 = target: T1, RSK1 (Homo sapiens, UniProt Q15418); experiment: ProfilerPro kinase panel, single concentration […]
T1 construct: gene RPS6KA1

AurA = target: T2, AurA (Homo sapiens, UniProt O14965); experiment: ProfilerPro kinase panel, single concentration […]
T2 construct: gene AURKA
T2 sequence (O14965 1-403): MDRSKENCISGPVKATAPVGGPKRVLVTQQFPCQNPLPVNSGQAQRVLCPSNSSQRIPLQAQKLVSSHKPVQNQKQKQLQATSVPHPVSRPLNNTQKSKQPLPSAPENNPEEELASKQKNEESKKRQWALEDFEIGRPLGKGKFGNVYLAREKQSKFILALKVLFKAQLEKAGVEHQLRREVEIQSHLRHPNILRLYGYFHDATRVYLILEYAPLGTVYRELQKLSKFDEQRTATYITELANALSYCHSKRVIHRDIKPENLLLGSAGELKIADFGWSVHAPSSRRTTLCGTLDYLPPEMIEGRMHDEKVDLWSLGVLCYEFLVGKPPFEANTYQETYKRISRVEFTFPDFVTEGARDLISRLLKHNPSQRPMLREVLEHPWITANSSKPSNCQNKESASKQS

CHK2 = target: T3, CHK2 (Homo sapiens, UniProt O96017); experiment: ProfilerPro kinase panel, single concentration […]
T3 construct: gene CHEK2

PKD2 = target: T4, PKD2 (Homo sapiens, UniProt Q9BZL6); experiment: ProfilerPro kinase panel, single concentration […]
T4 construct: gene PRKD2
T4 sequence (Q9BZL6 1-878): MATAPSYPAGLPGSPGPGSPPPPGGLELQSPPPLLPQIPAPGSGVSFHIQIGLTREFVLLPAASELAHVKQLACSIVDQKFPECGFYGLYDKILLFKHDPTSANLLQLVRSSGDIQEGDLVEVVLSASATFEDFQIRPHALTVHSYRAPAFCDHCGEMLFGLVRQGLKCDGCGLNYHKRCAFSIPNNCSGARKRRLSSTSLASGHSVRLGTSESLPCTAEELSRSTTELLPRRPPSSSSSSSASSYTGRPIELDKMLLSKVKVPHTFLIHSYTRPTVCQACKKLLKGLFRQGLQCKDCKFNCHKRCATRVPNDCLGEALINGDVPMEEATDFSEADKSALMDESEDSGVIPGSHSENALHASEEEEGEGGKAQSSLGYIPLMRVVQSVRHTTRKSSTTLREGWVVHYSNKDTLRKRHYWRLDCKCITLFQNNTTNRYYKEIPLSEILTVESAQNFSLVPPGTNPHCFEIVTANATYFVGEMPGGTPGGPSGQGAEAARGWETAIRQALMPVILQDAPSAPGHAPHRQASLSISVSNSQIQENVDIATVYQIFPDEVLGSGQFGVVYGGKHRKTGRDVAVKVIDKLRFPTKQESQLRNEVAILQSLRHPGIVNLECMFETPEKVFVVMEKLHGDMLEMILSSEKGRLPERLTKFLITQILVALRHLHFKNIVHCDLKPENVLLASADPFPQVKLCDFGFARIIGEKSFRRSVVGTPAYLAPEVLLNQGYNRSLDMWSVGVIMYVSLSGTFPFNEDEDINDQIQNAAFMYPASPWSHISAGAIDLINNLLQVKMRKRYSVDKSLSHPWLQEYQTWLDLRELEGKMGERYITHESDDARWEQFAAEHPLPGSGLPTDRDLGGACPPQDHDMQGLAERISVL

INSR = INSR (Homo sapiens, UniProt P06213); experiment: ProfilerPro kinase panel, single concentration […]
ABL [1] = target: T5, ABL (Homo sapiens, UniProt P00519); experiment: kinase inhibition IC50 (Invitrogen), following ProfilerPro kinase panel ([…] at […])
T5 construct: gene ABL1

ABL [2] = target: T5, ABL; experiment: as above; remark: listed apart in the source

T5 sequence (P00519 whole entry): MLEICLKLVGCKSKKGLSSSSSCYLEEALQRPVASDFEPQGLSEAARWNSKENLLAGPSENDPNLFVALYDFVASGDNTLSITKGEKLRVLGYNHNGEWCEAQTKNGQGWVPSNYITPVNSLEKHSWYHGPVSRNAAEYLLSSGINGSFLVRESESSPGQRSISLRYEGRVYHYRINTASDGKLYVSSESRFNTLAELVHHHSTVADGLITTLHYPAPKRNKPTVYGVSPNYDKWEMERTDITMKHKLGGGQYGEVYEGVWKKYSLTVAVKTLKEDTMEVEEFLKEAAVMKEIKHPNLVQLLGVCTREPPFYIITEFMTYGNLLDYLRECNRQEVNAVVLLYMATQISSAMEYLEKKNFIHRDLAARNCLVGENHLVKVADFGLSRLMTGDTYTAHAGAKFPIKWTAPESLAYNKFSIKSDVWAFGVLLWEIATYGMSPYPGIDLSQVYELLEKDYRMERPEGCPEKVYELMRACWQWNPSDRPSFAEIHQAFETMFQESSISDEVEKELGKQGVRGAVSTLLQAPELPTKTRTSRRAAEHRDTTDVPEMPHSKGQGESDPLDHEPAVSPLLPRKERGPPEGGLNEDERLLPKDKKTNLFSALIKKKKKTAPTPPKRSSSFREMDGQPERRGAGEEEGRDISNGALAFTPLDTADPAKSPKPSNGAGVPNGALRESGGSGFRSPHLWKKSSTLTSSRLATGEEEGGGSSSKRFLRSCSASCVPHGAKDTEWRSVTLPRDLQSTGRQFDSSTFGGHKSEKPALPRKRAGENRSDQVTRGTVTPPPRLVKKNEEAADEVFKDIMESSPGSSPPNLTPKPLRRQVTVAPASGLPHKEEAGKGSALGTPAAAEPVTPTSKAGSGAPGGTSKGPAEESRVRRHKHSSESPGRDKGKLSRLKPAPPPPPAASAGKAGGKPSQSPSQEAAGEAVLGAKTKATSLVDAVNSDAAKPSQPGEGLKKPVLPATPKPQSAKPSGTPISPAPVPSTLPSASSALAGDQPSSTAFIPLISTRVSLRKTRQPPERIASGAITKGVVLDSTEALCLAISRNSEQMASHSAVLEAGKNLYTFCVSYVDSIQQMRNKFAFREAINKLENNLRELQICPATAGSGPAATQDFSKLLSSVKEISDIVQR
T1 sequence (Q15418 whole entry): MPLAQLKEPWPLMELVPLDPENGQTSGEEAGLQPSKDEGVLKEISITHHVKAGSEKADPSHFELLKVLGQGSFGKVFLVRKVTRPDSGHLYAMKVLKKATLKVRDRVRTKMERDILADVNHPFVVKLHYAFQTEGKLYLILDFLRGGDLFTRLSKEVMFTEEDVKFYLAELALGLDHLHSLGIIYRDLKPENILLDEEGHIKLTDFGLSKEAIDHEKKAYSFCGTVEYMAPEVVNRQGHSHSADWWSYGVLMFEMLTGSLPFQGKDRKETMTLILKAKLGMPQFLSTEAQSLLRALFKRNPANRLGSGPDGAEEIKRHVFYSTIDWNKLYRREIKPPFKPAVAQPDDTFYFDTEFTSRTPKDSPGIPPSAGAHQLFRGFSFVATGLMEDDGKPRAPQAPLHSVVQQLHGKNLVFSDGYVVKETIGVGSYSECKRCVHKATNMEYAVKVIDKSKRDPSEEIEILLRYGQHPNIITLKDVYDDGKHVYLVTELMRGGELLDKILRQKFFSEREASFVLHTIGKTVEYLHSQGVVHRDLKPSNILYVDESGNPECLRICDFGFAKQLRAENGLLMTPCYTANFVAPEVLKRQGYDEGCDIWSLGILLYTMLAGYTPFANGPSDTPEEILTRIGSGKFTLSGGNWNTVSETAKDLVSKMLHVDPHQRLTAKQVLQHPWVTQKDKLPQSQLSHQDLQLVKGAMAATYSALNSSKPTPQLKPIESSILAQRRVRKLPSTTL
Chain of INSR (P06213 28-758): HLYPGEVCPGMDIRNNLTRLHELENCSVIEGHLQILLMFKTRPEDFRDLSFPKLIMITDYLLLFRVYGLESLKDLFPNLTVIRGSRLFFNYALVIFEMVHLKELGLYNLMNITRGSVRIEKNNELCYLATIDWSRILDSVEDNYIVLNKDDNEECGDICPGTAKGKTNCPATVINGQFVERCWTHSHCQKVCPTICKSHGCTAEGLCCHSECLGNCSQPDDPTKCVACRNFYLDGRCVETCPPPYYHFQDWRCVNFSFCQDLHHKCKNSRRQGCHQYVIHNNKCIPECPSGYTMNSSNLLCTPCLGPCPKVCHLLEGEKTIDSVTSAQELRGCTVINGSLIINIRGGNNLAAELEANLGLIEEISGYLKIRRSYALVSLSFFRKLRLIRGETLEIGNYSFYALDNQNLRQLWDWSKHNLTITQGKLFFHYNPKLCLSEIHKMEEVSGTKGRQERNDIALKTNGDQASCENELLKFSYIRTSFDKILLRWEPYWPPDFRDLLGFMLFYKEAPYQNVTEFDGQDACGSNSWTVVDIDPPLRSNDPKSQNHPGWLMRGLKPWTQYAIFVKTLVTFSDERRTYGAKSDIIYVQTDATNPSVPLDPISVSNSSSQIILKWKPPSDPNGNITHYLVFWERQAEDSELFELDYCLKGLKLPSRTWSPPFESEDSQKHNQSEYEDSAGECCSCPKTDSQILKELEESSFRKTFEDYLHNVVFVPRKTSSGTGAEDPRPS
Chain of INSR (P06213 763-1382): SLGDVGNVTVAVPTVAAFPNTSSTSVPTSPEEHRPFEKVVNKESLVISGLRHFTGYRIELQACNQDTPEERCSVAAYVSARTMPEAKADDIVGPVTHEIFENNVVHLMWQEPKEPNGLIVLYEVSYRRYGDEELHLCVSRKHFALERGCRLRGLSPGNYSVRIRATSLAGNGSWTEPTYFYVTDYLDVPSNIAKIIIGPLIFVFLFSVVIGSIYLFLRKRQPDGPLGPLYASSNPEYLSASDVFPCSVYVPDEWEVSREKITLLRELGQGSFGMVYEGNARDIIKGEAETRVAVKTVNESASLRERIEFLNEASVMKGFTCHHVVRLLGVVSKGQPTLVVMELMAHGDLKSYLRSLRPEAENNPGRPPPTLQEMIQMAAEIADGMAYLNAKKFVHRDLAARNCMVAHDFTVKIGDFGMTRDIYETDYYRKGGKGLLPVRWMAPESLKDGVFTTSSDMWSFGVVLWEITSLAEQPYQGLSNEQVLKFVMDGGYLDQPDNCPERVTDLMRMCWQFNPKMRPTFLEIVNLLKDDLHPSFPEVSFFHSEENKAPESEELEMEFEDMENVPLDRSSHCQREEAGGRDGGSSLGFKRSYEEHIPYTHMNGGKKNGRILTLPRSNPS
T3 sequence (O96017 whole entry): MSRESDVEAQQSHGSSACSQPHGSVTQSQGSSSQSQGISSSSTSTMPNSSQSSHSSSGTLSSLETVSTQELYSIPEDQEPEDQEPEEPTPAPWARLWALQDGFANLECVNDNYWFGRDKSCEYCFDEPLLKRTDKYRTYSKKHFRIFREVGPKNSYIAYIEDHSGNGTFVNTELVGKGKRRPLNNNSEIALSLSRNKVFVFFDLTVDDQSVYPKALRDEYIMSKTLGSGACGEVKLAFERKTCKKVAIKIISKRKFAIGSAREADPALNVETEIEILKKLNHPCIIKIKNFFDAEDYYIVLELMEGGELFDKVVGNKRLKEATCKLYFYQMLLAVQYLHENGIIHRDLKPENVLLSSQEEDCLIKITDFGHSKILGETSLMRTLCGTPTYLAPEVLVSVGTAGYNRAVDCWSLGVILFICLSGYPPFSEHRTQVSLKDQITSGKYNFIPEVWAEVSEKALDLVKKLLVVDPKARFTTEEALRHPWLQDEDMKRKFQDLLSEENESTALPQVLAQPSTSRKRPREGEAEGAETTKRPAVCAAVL

Clc1ccc(-c2cnc3[nH]ccc3c2)cc1 [4j]
inhibition at 300 µM (RSK1): 91%

c1ccc(-c2cnc3[nH]ccc3c2)cc1 [4n]
inhibition at 300 µM (AurA): 99% | inhibition at 300 µM (CHK2): 91% | inhibition at 300 µM (PKD2): 92% | inhibition at 300 µM (INSR): 93%

c1ccc(-c2ccc3ncccc3c2)cc1 [4o]
IC50 (ABL [1]): 8.11 µM

Clc1ccnc2ccc(-c3ccccc3)cc12 [4p]
IC50 (ABL [2]): 19.2 µM
